Assay results: ChEMBL document CHEMBL1201862, “PubChem BioAssay data set” (2004)
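All cell lines were grown in 96-well plates and treated with compound for 48 hours. At the GI50, growth is halved.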 Active and inactive are the calls of the source. No stated cut-off is given here; in the data, active = GI50 up to about 1.1 µM and inactive = higher.

How the values were obtained:
Assay in all cases: NCI tumour cell line growth inhibition, 48 h
BT-549 = test system: BT-549
U-251 = test system: U-251
SF-539 = test system: SF-539
RPMI-8226 = test system: RPMI-8226
CCRF-CEM = test system: CCRF-CEM
DU-145 = test system: DU-145
SNB-19 = test system: SNB-19
EKVX = test system: EKVX
LOX IMVI = test system: LOX IMVI
PC-3 = test system: PC-3
SR = test system: SR
SF-295 = test system: SF-295
CAKI-1 = test system: CAKI-1
HT-29 = test system: HT-29
OVCAR-3 = test system: OVCAR-3
OVCAR-8 = test system: OVCAR-8
IGROV-1 = test system: IGROV-1
MDA-MB-435 = test system: MDA-MB-435
SF-268 = test system: SF-268
M14 = test system: M14
SK-MEL-2 = test system: SK-MEL-2
HCT-15 = test system: HCT-15
NCI-H522 = test system: NCI-H522
786-0 = test system: 786-0
Malme-3M = test system: Malme-3M
HOP-62 = test system: HOP-62
SK-OV-3 = test system: SK-OV-3
OVCAR-5 = test system: OVCAR-5
NCI-H23 = test system: NCI-H23
Hs-578T = test system: Hs-578T
NCI-H460 = test system: NCI-H460
UACC-62 = test system: UACC-62
HCT-116 = test system: HCT-116
MOLT-4 = test system: MOLT-4
SK-MEL-5 = test system: SK-MEL-5
K562 = test system: K562
NCI-H226 = test system: NCI-H226
HOP-92 = test system: HOP-92
UACC-257 = test system: UACC-257
COLO 205 = test system: COLO 205
TK-10 = test system: TK-10
MCF7 = test system: MCF7
MDA-MB-231 = test system: MDA-MB-231
NCI/ADR-RES = test system: NCI/ADR-RES
SN12C = test system: SN12C
A549 = test system: A549
ACHN = test system: ACHN
SNB-75 = test system: SNB-75
KM12 = test system: KM12
UO-31 = test system: UO-31
SK-MEL-28 = test system: SK-MEL-28
OVCAR-4 = test system: OVCAR-4
SW-620 = test system: SW-620
T47D = test system: T47D
HL-60 = test system: HL-60
HCC 2998 = test system: HCC 2998
RXF 393 = test system: RXF 393
A498 = test system: A498
MDA-N = test system: MDA-N

Measured: GI50

Nc1ccc2c(SCCSc3c4ccccc4nc4cc(N)ccc34)c3ccccc3nc2c1
> 100 µM: HCT-15
inactive: BT-549 > 100 µM | U-251 49.3 µM | SF-539 > 100 µM | RPMI-8226 > 100 µM | CCRF-CEM 38.5 µM | DU-145 > 100 µM | SNB-19 > 100 µM | EKVX > 100 µM | LOX IMVI > 100 µM | PC-3 > 100 µM | SR 23 µM | SF-295 > 100 µM | CAKI-1 > 100 µM | HT-29 > 100 µM | OVCAR-3 > 100 µM | OVCAR-8 > 100 µM | IGROV-1 > 100 µM | MDA-MB-435 > 100 µM | SF-268 > 100 µM | M14 > 100 µM | SK-MEL-2 > 100 µM | NCI-H522 > 100 µM | 786-0 > 100 µM | Malme-3M > 100 µM | HOP-62 > 100 µM | SK-OV-3 > 100 µM | OVCAR-5 > 100 µM | NCI-H23 94.2 µM | Hs-578T > 100 µM | NCI-H460 > 100 µM | UACC-62 > 100 µM | HCT-116 57.4 µM | MOLT-4 15.7 µM | SK-MEL-5 > 100 µM | K562 38.6 µM | NCI-H226 > 100 µM | HOP-92 > 100 µM | UACC-257 > 100 µM | COLO 205 > 100 µM | TK-10 > 100 µM | MCF7 > 100 µM | MDA-MB-231 > 100 µM | NCI/ADR-RES > 100 µM | SN12C > 100 µM | A549 > 100 µM | ACHN 55.7 µM | SNB-75 > 100 µM | KM12 > 100 µM | UO-31 > 100 µM | SK-MEL-28 > 100 µM | OVCAR-4 > 100 µM | SW-620 > 100 µM | T47D > 100 µM

O=C(CSCC(=O)N/N=C/c1cccc(OCc2ccccc2)c1)N/N=C/c1cccc(OCc2ccccc2)c1
inactive: BT-549 68.1 µM | U-251 39.2 µM | SF-539 > 100 µM | RPMI-8226 8.91 µM | HL-60 21.5 µM | CCRF-CEM 24.4 µM | DU-145 > 100 µM | SNB-19 57.5 µM | EKVX 69.3 µM | LOX IMVI 36.1 µM | PC-3 20 µM | SF-295 34.2 µM | CAKI-1 > 100 µM | HT-29 39.5 µM | OVCAR-3 39.5 µM | OVCAR-8 32.2 µM | IGROV-1 > 70.8 µM | MDA-MB-435 37.5 µM | SF-268 > 80.2 µM | M14 37.5 µM | HCC 2998 30.6 µM | SK-MEL-2 41.3 µM | NCI-H522 > 47.6 µM | 786-0 54.2 µM | Malme-3M 45.5 µM | HOP-62 > 100 µM | SK-OV-3 > 100 µM | OVCAR-5 96.8 µM | NCI-H23 36.6 µM | Hs-578T > 100 µM | NCI-H460 34.4 µM | RXF 393 > 69.7 µM | UACC-62 > 92.3 µM | HCT-116 26.8 µM | MOLT-4 15.5 µM | SK-MEL-5 31.3 µM | K562 22.3 µM | NCI-H226 > 74.5 µM | HOP-92 36.7 µM | UACC-257 32.3 µM | TK-10 33.3 µM | MCF7 33.7 µM | MDA-MB-231 > 100 µM | NCI/ADR-RES 44.6 µM | SN12C 35.5 µM | A549 27.9 µM | ACHN 32.9 µM | SNB-75 > 100 µM | KM12 33.3 µM | UO-31 46.9 µM | SK-MEL-28 > 100 µM | OVCAR-4 > 76.4 µM | SW-620 > 87.1 µM | T47D 38.9 µM | A498 > 44.3 µM
44.4 µM: HCT-15

CCC(=O)O[C@H]1CC[C@H]2[C@@H]3CCC4=CC(=O)C=C[C@]4(O)[C@H]3CC[C@]12C
inactive: BT-549 20.5 µM | U-251 20.5 µM | SF-539 29.6 µM | RPMI-8226 8.55 µM | HL-60 11.9 µM | CCRF-CEM 4.09 µM | DU-145 22.8 µM | SNB-19 28.4 µM | EKVX 25.9 µM | LOX IMVI 16.7 µM | PC-3 23.8 µM | SR 2.67 µM | SF-295 26.1 µM | CAKI-1 24.3 µM | HT-29 19.1 µM | OVCAR-3 19.8 µM | OVCAR-8 23 µM | IGROV-1 22.4 µM | MDA-MB-435 3.11 µM | SF-268 31 µM | MDA-N 2.95 µM | M14 22.5 µM | SK-MEL-2 15.9 µM | NCI-H522 16.7 µM | 786-0 33.7 µM | Malme-3M 48 µM | HOP-62 29.4 µM | SK-OV-3 82.6 µM | OVCAR-5 87.5 µM | NCI-H23 22 µM | Hs-578T 39.5 µM | NCI-H460 16.3 µM | RXF 393 24.5 µM | UACC-62 15.4 µM | HCT-116 21.9 µM | MOLT-4 8.87 µM | SK-MEL-5 5.22 µM | K562 3.39 µM | NCI-H226 > 100 µM | HOP-92 31.2 µM | UACC-257 3.72 µM | COLO 205 37.8 µM | TK-10 57.4 µM | MCF7 23.9 µM | MDA-MB-231 22.7 µM | NCI/ADR-RES 37 µM | SN12C 41.9 µM | A549 16.1 µM | ACHN 55.7 µM | KM12 18.5 µM | UO-31 64.1 µM | SK-MEL-28 67.6 µM | OVCAR-4 28.3 µM | SW-620 17.9 µM | A498 > 100 µM
15 µM: HCT-15

O=C1c2ccccc2C(=O)c2c1nc1ccccc1c2-c1cncc(-c2c3c(nc4ccccc24)C(=O)c2ccccc2C3=O)c1
inactive: BT-549 11.4 µM | U-251 8 µM | SF-539 6.46 µM | HL-60 1.75 µM | DU-145 4.09 µM | SNB-19 23.8 µM | EKVX 3.85 µM | LOX IMVI 1.67 µM | PC-3 2.15 µM | SR 1.53 µM | SF-295 8.32 µM | CAKI-1 9.84 µM | HT-29 8.49 µM | OVCAR-3 5.7 µM | OVCAR-8 1.52 µM | MDA-MB-435 1.83 µM | SF-268 6.08 µM | M14 3.18 µM | HCC 2998 18.5 µM | SK-MEL-2 8.45 µM | NCI-H522 1.95 µM | 786-0 9.82 µM | Malme-3M 11.9 µM | HOP-62 6.56 µM | SK-OV-3 > 77.1 µM | OVCAR-5 50.2 µM | NCI-H23 1.18 µM | Hs-578T 3.69 µM | NCI-H460 2.43 µM | RXF 393 12.1 µM | UACC-62 5.65 µM | HCT-116 4.17 µM | SK-MEL-5 1.29 µM | K562 1.31 µM | NCI-H226 5.87 µM | HOP-92 4.32 µM | UACC-257 8.63 µM | COLO 205 2.85 µM | TK-10 37.3 µM | MCF7 5.19 µM | MDA-MB-231 9.31 µM | NCI/ADR-RES 4.13 µM | SN12C 3.98 µM | A549 3.29 µM | ACHN 4.08 µM | SNB-75 5.69 µM | KM12 3.61 µM | UO-31 1.55 µM | SK-MEL-28 12.4 µM | OVCAR-4 30.9 µM | SW-620 6.15 µM | T47D 2.33 µM | A498 9.18 µM
1.24 µM: HCT-15
active: RPMI-8226 0.361 µM | CCRF-CEM 0.562 µM | IGROV-1 0.0596 µM | MOLT-4 0.418 µM

CCCCCCCCCCCCCCCCCC(=O)Nc1ccn(C2CCC(COP(=O)(O)O)O2)c(=O)n1 (centres undefined)
> 100 µM: HCT-15
inactive: BT-549 > 100 µM | U-251 > 100 µM | SF-539 > 100 µM | RPMI-8226 > 100 µM | CCRF-CEM > 100 µM | DU-145 > 100 µM | SNB-19 > 100 µM | EKVX > 100 µM | LOX IMVI > 100 µM | PC-3 > 100 µM | SR > 100 µM | SF-295 > 100 µM | CAKI-1 > 100 µM | HT-29 > 100 µM | OVCAR-3 > 100 µM | OVCAR-8 > 100 µM | IGROV-1 > 100 µM | MDA-MB-435 > 100 µM | SF-268 > 100 µM | M14 > 100 µM | HCC 2998 > 100 µM | SK-MEL-2 > 100 µM | NCI-H522 > 100 µM | 786-0 > 100 µM | HOP-62 > 100 µM | SK-OV-3 > 100 µM | OVCAR-5 > 100 µM | NCI-H23 > 100 µM | Hs-578T > 100 µM | RXF 393 > 100 µM | UACC-62 > 100 µM | HCT-116 > 100 µM | MOLT-4 > 100 µM | SK-MEL-5 > 100 µM | K562 > 100 µM | NCI-H226 > 100 µM | HOP-92 > 100 µM | UACC-257 > 100 µM | COLO 205 > 100 µM | TK-10 > 100 µM | MCF7 > 100 µM | MDA-MB-231 > 100 µM | NCI/ADR-RES > 100 µM | SN12C > 100 µM | A549 > 100 µM | ACHN > 100 µM | SNB-75 > 100 µM | KM12 > 100 µM | UO-31 > 100 µM | SK-MEL-28 > 100 µM | OVCAR-4 > 100 µM | SW-620 > 100 µM | T47D > 100 µM | A498 > 100 µM
